Consider 14 molecules from publication PMC9865501, “Design and Synthesis of Scopoletin Sulfonate Derivatives as Potential Insecticidal Agents” (Molecules, 2023).

The IC50 is the concentration that inhibits the measured activity by half. Low readings indicate greater potency in that assay, high ones weaker potency in that assay. One may read the LC50 as the concentration lethal to half of the exposed cells or organisms.

Molecules are shown by their SMILES. Values after ≈ are worked out from the molar mass of the structure shown. Like-named read-outs stand apart in the source and are kept apart here.

In one data set the target is T1, AChE (Electrophorus electricus, UniProt O42275).
T1 construct: purchased Sigma–Aldrich Chemie GmbH (Buchs, Switzerland)
T1 sequence (O42275 24-633): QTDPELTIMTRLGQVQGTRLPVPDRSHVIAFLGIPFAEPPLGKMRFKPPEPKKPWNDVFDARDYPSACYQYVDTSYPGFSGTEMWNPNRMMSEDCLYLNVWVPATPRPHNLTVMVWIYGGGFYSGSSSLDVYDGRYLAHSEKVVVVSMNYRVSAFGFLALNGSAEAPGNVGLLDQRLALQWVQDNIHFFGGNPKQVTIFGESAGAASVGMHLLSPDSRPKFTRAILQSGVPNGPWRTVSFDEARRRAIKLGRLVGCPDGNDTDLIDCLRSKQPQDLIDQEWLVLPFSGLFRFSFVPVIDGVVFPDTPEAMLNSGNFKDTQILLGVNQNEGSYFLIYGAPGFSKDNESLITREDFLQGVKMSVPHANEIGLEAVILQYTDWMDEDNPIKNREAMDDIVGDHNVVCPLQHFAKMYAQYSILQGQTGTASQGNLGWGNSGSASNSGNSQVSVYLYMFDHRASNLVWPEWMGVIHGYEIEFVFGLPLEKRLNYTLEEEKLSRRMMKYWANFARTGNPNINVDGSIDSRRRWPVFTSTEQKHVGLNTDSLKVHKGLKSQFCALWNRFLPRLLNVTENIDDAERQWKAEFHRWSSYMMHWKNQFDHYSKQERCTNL
The experiment in a line: In vitro AChE inhibition (ELISA kit). In kind it is biochemical, electric eels. Here is the method: The effects of the title compounds on the in vitro AChE activity were evaluated using ELISA technology. AChE derived from electric eels was purchased from Sigma–Aldrich Chemie GmbH (Buchs, Switzerland). Briefly, the AChE was preincubated with different concentrations (500, 250, 125, 62.5, 31.25, 15.625, and 7.8125 μg/mL) of the compounds in PBS solution. Then, the AChE activities after incubation were measured using the corresponding ELISA kit according to the manufacturer’s instructions (Jiancheng, Nanjing, China). The detection was performed using a multifunctional microplate reader (SpectraMax® M2e, Thermo Scientific, Waltham, MA, USA).
For orientation: ELISA stands for enzyme-linked immunosorbent assay.

A short description of data set [1]: Toxicity to brine shrimp Artemia. Format: in vivo, Artemia salina. The following applies: Artemia salina (brine shrimp), in vivo, other: immersion in test solution, read-out: Lethal activity to Artemia LC50. Here is the method:
(§1) The toxicity of the title compounds to the brine shrimp A. salina was evaluated according to the reported method. […] Subsequently, approximately 50 hatched (10 h instar) brine shrimp were transferred into each pore of a 24-well plate filled with the test solutions. Finally, the brine shrimp were reared in an illumination incubator (28 ± 1 °C, 12 h light and 12 h dark alternatively) for 24 h. DMSO—1% Tween 20 was used as a blank control. Each treatment was conducted in triplicate. The dead insects were recorded under a stereoscope, and the corrected mortalities of A. salina treated with the compounds were calculated.

The test system of the next data set is T. cinnabarinus. The experiment in a line: Acaricidal activity against T. cinnabarinus (leaf spray on broad bean, 72 h). In kind it is in vivo, Tetranychus cinnabarinus. The following applies: for LC50: Tetranychus cinnabarinus; for acaricidal toxicity relative to compound 5: compared with compound 5. Here is the method: An acaricidal activity assay of the test compounds against mites was conducted according to procedures outlined in the literature. […] The stock solution was then diluted to a series of working concentrations with 1% Tween 80 to obtain the test solutions. Subsequently, the leaves of two-leaf-stage broad beans were inoculated with 150–200 female adult T. cinnabarinus mites and reared in a greenhouse (26 ± 1 °C, 75–80% RH, 16 h light and 8 h dark alternatively) for 8 h. The test solution of the compound was then evenly sprayed on these leaves, which were then cultivated in the greenhouse for 72 h. In the blank control group, Tween 80 (1%) was used instead of the treatment solution. Cyetpyrafen (CAS NO. 1253429-01-4) was used as a positive control. Each treatment was repeated three times. The dead insects were recorded under a stereoscope, and the corrected mortalities of mites treated with the compounds were calculated.

For another data set, the system named is A. salina. Briefly: Toxicity to brine shrimp Artemia. Format: in vivo, Artemia salina. As to the method:
as §1

The mark [2] stands for this setting: 72 h, Table S1, read-out: Acaricidal activity LC50.
[3] abbreviates: 72 h, main text and Figure 5, read-out: LC50 against T. cinnabarinus.

On AChE, `COc1cc2cc(-c3ccc(F)cc3)c(=O)oc2cc1OS(=O)(=O)c1ccc(Cl)cc1` [Compound 5d] had an IC50 of 149 µM. For the same molecule, in data set [1], the LC50 at 6 h stood at 72.8 µg/mL (≈ 158 µM) and the LC50 at 12 h is 33.7 µg/mL (≈ 73.1 µM). In the data set with T. cinnabarinus (setting [2]), the 50% lethal concentration (LC50) is 99 µg/mL (≈ 215 µM).

`COc1cc2cc(-c3ccc(F)cc3)c(=O)oc2cc1OS(=O)(=O)c1ccc(Br)cc1` [Compound 5e] had an IC50 against AChE of 141 µM. Further, in data set [1], the LC50 at 6 h amounted to 114 µg/mL (≈ 226 µM) and the LC50 at 12 h came to 79.5 µg/mL (≈ 157 µM). The LC50 in the data set with T. cinnabarinus (setting [2]) amounted to 80 µg/mL (≈ 158 µM).

At AChE, `COc1cc2cc(-c3ccc(F)cc3)c(=O)oc2cc1OS(=O)(=O)c1ccc(C(F)(F)F)cc1` [Compound 5f] showed an IC50 of 242 µM. Besides, in data set [1], the LC50 at 6 h was 71.5 µg/mL (≈ 145 µM) and the 50% lethal concentration (LC50) at 12 h was 39.9 µg/mL (≈ 80.7 µM). In addition, in the data set on T. cinnabarinus (setting [2]), the LC50 stood at 104 µg/mL (≈ 210 µM).

At AChE, `COc1cc2cc(-c3ccc(F)cc3)c(=O)oc2cc1OS(=O)(=O)c1ccc([N+](=O)[O-])cc1` [Compound 5g] showed a 50% inhibitory concentration (IC50) of 261 µM. Also, in data set [1], the LC50 at 6 h was 86.6 µg/mL (≈ 184 µM) and the LC50 at 12 h was found to be 53.6 µg/mL (≈ 114 µM). Also, the LC50 in the data set on T. cinnabarinus (setting [2]) turned out to be 68 µg/mL (≈ 144 µM). Further, in the data set with T. cinnabarinus, the “acaricidal toxicity relative to compound 5” value is “approximately 2 times”.

In the case of `COc1cc2cc(-c3ccc(F)cc3)c(=O)oc2cc1OS(=O)(=O)c1cc(Cl)c(Cl)cc1Cl` [Compound 5h], the IC50 at AChE was 198 µM. In data set [1], the LC50 at 6 h stood at 106 µg/mL (≈ 200 µM) and the LC50 at 12 h worked out at 57.6 µg/mL (≈ 109 µM). Besides, the LC50 in the data set with T. cinnabarinus (setting [2]) was determined as 96 µg/mL (≈ 181 µM).

The molecule `COc1cc2cc(-c3ccc(F)cc3)c(=O)oc2cc1OS(=O)(=O)c1cccs1` [Compound 5i] showed an IC50 on AChE of 255 µM. For the same molecule, in data set [1], the LC50 at 6 h amounted to 99.8 µg/mL (≈ 231 µM) and the LC50 at 12 h worked out at 56.7 µg/mL (≈ 131 µM). Moreover, in the data set on T. cinnabarinus (setting [2]), the LC50 was determined as 73 µg/mL (≈ 169 µM). Moreover, the “acaricidal toxicity relative to compound 5” value in the data set on T. cinnabarinus was “approximately 2 times”.

As to `COc1cc2cc(-c3ccc(F)cc3)c(=O)oc2cc1OS(=O)(=O)c1ccc2ccccc2c1` [Compound 5j], half-maximal inhibition against AChE (IC50) required 115 µM. In addition, in data set [1], the LC50 at 6 h stood at 77.9 µg/mL (≈ 163 µM) and the LC50 at 12 h turned out to be 29.7 µg/mL (≈ 62.3 µM). Moreover, the LC50 in the data set on T. cinnabarinus (setting [3]) stood at 20 µg/mL (≈ 42 µM). Also, the “acaricidal toxicity relative to compound 5” value in the data set with T. cinnabarinus is recorded as around 5 times.

For `COc1cc2cc(C(C)=O)c(=O)oc2cc1O` [Compound 6, 3-acetyl-7-hydroxy-6-methoxy-2H-chromen-2-one], on AChE, half-maximal inhibition (IC50) was put at 395 µM. In data set [1], the LC50 at 6 h turned out to be 56.5 µg/mL (≈ 241 µM) and the LC50 at 12 h worked out at 35.6 µg/mL (≈ 152 µM). The LC50 with T. cinnabarinus (setting [2]) came to 81 µg/mL (≈ 346 µM). The LC50 with T. cinnabarinus (setting [3]) lay in the range of 81 to 116 µg/mL (≈ 346 to 495 µM).

Regarding `COc1cc2cc(C(C)=O)c(=O)oc2cc1OS(=O)(=O)c1ccc(Cl)cc1` [Compound 6d], half-maximal inhibition against AChE (IC50) was put at 355 µM. In data set [1], the LC50 at 6 h is 45.5 µg/mL (≈ 111 µM) and the median lethal concentration (LC50) at 12 h is 27.9 µg/mL (≈ 68.2 µM). Also, in the data set with T. cinnabarinus (setting [2]), the LC50 worked out at 159 µg/mL (≈ 389 µM).

In turn, `COc1cc2cc(C(C)=O)c(=O)oc2cc1OS(=O)(=O)c1cc(Cl)c(Cl)cc1Cl` [Compound 6h] had an IC50 on AChE of 275 µM. In addition, in data set [1], the LC50 at 6 h was found to be 48.5 µg/mL (≈ 102 µM) and the LC50 at 12 h is 33.9 µg/mL (≈ 71 µM). Also, the LC50 in the data set on T. cinnabarinus (setting [2]) came out at 107 µg/mL (≈ 224 µM).

The molecule `COc1cc2cc(C(=O)Nc3ccc(Br)cc3)c(=O)oc2cc1O` [Compound 7, 3-(4-bromoaniline formyl)-7-hydroxy-6-methoxy-2H-chromen-2-one] had an IC50 at AChE of 197 µM. Also, in data set [1], the LC50 at 6 h was 52.3 µg/mL (≈ 134 µM) and the LC50 at 12 h turned out to be 32.3 µg/mL (≈ 82.8 µM). Also, the 50% lethal concentration (LC50) in the data set with T. cinnabarinus (setting [2]) came out at 82 µg/mL (≈ 210 µM). Moreover, the 50% lethal concentration (LC50) in the data set with T. cinnabarinus (setting [3]) is 81 to 116 µg/mL (≈ 208 to 297 µM).

Molecule `COc1cc2cc(C(=O)Nc3ccc(Br)cc3)c(=O)oc2cc1OS(=O)(=O)c1ccccc1` [Compound 7a] gave a half-maximal inhibitory concentration (IC50) on AChE of 221 µM. In data set [1], the LC50 at 6 h came out at 57.6 µg/mL (≈ 109 µM) and the LC50 at 12 h is 33.6 µg/mL (≈ 63.4 µM). Moreover, the LC50 with T. cinnabarinus (setting [2]) is 117 µg/mL (≈ 221 µM).

Turning to `COc1cc2cc(C(=O)Nc3ccc(Br)cc3)c(=O)oc2cc1OS(=O)(=O)c1ccc(Cl)cc1` [Compound 7d], half-maximal inhibition on AChE (IC50) required 174 µM. In data set [1], the LC50 at 6 h worked out at 54.2 µg/mL (≈ 96 µM) and the LC50 at 12 h was determined as 39.4 µg/mL (≈ 69.8 µM). Further, the 50% lethal concentration (LC50) with T. cinnabarinus (setting [2]) was 89 µg/mL (≈ 158 µM).

As for `CCn1nc(C)cc1/C(OC(=O)C(C)(C)C)=C(/C#N)c1ccc(C(C)(C)C)cc1` [Cyetpyrafen, reference compound], at AChE, the “AChE inhibition IC50” value came to 14.06 ± 10.20 µg/mL. In addition, the “Lethal activity to Artemia LC50” value with A. salina (6 h) is 11.7 µg/mL; with A. salina (12 h), 6.13 µg/mL. The “LC50 against T. cinnabarinus” value in the data set on T. cinnabarinus (72 h, main text and Figure 5) was 15.0 µg/mL (≈ 38.1 µM).
